Consider one compound from US9249453B2, “Method for identifying a malodor inhibitor” (Kao Corporation, priority 2011, dated 2016).

A short description of assay [1]: Sensory test by panelists: suppression of skatole odor. Type of assay: in vivo. The conditions noted are these: Example 6: test substance diluted by 1% with propylene glycol, n=3, FIG. 5. The method, then:
A cotton ball was put into a glass bottle (Hakuyo. […] The glass bottle was left to stand for one night at room temperature, to thereby sufficiently evaporate the odorant molecule. The sensory test was performed by four panelists. In the case where skatole alone was added to a glass bottle, the odor intensity was rated to 5. Then, the malodor intensity in the case where skatole and a test substance were added was evaluated with a rating of 0 to 10 (by 0.5) (i.e., 20 ratings) In order to investigate specificity of malodor suppressing effect of a test substance identified in Example 4, the sensory test was also performed with hexanoic acid, a malodorous compound but structurally differs from skatole. In the experiment, hexanoic acid diluted by 1% with propylene glycol was used as a malodorous compound, and methyl dihydrojasmonate diluted by 1% with propylene glycol was used as a test substance.

In another assay the target is T1, OR5K1 (Homo sapiens, UniProt Q8NHB7).
T1 construct: expressed in transfected cells; host or cells: HEK293
T1 sequence (Q8NHB7 1-308): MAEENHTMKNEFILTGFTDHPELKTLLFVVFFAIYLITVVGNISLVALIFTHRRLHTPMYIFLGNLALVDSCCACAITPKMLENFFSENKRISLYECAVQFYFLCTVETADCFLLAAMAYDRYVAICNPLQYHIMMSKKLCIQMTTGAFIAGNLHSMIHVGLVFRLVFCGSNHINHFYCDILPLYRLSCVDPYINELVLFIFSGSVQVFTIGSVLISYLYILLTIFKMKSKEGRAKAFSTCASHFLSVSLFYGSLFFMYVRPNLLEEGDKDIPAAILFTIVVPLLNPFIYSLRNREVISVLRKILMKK
Briefly: Luciferase reporter assay: suppression of the skatole response of OR5K1 expressed in HEK293 cells. Type of assay: cell-based. The settings on record: 4 h; test substance 100 μM mixed with 300 μM skatole, HEK293 cells expressing OR5K1; read-out: Inhibition rate 5K1.

Another assay deals with T2, OR8H1 (Homo sapiens, UniProt Q8NGG4).
T2 construct: expressed in transfected cells; host or cells: HEK293
T2 sequence (Q8NGG4 1-311): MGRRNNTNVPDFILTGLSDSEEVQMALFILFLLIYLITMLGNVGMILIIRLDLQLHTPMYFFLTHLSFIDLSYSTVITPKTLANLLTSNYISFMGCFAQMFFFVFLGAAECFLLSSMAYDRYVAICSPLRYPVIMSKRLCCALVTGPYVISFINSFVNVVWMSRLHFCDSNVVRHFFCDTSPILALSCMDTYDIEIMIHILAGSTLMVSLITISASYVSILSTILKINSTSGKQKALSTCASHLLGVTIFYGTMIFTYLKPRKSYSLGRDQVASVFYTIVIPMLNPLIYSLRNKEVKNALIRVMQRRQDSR
The experiment in a line: Luciferase reporter assay: suppression of the skatole response of OR8H1 expressed in HEK293 cells. The format is cell-based. The conditions noted are these: 4 h; test substance 100 μM mixed with 300 μM skatole, HEK293 cells expressing OR8H1; read-out: Inhibition rate 8H1.

Assay [2] can be described thus: Sensory test by panelists: suppression of hexanoic acid odor. The conditions noted are these: Example 6: hexanoic acid 1% and test substance 1% in propylene glycol, n=3, FIG. 5. The format is in vivo. The method, then: A cotton ball was put into a glass bottle (Hakuyo. Glass No. 11, capacity: 110 mL), and skatole diluted by 0.001% with propylene glycol (20 μL) and a test substance also diluted by 0.001% (20 μL) were added to the cotton ball. The glass bottle was left to stand for one night at room temperature, to thereby sufficiently evaporate the odorant molecule. The sensory test was performed by four panelists. In the case where skatole alone was added to a glass bottle, the odor intensity was rated to 5. Then, the malodor intensity in the case where skatole and a test substance were added was evaluated with a rating of 0 to 10 (by 0.5) (i.e., 20 ratings) In order to investigate specificity of malodor suppressing effect of a test substance identified in Example 4, the sensory test was also performed with hexanoic acid, a malodorous compound but structurally differs from skatole. In the experiment, hexanoic acid diluted by 1% with propylene glycol was used as a malodorous compound, and methyl dihydrojasmonate diluted by 1% with propylene glycol was used as a test substance.

The target of another assay is T3, OR5P3 (Homo sapiens, UniProt Q8WZ94).
T3 construct: expressed in transfected cells; host or cells: HEK293
T3 sequence (Q8WZ94 1-311): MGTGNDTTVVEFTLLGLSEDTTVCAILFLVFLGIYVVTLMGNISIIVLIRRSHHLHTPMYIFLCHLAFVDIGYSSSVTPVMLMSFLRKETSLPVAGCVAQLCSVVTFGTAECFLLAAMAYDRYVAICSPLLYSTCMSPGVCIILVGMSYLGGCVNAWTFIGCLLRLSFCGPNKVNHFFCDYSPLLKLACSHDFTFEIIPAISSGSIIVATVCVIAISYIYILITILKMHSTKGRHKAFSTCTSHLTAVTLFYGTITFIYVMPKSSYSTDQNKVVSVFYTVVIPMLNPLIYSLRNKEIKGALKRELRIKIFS
The experiment in a line: Luciferase reporter assay: suppression of the skatole response of OR5P3 expressed in HEK293 cells. Type of assay: cell-based. The settings on record: test substance 100 μM mixed with 300 μM skatole, HEK293 cells expressing OR5P3.

The target of a further assay is T4, OR2W1 (Homo sapiens, UniProt Q9Y3N9).
T4 construct: expressed in transfected cells; host or cells: HEK293
T4 sequence (Q9Y3N9 1-320): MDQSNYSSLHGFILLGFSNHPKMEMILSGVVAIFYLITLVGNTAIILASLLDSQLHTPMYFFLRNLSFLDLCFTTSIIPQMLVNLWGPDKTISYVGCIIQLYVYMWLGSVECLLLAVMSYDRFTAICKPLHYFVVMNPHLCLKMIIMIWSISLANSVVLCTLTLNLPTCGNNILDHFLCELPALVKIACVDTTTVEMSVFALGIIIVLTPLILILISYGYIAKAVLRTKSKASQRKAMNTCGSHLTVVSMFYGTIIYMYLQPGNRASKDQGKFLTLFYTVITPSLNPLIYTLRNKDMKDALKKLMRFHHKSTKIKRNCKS
Briefly: Luciferase reporter assay: suppression of the skatole response of OR2W1 expressed in HEK293 cells. The format is cell-based. The conditions noted are these: 4 h; test substance 100 μM mixed with 300 μM skatole, HEK293 cells expressing OR2W1; read-out: Inhibition rate 2W1.

Regarding `CCCCCC1C(=O)CCC1CC(=O)OC` (stereo not drawn) [methyl dihydrojasmonate, Methyl 2-penthyl-3-oxocyclopent-1-yl acetate], the “suppression effect on skatole odor” value in assay [1] was “suppressed skatole odor”. For the same compound, the inhibition at 100 µM is below 20% on OR5K1, 50 to 80% on OR8H1 and 50 to 80% at OR2W1. The “suppression effect on hexanoic acid odor” value in assay [2] is on record as “did not suppress hexanoic acid odor”. For the same compound, the “Inhibition rate 5P3” value at OR5P3 is recorded as “B (B >50%)”.
